# In ChEMBL document CHEMBL3286227, “Guanidinium-based derivatives: searching for new kinase inhibitors” (Eur J Med Chem, 2014):
# Activity calls are given as the source filed them. No cut-off for these calls is given here.
# Key:
# [1] = target: MAP kinase p38 (Homo sapiens) (UniProt O15264+Q15759+Q16539+P53778); experiment: Inhibition of P38 MAP kinase in human A431 cells using TNF-alpha as substrate at 10 uM incubated for 5 mins prior to substrate addition measured after 10 mins by fluorescence assay relative to control; format: cell-based; details: A-431
# [2] = target: Casein kinase I isoform delta (Homo sapiens, UniProt P48730); experiment: Inhibition of human recombinant casein kinase-1 delta using casein as substrate after 60 mins by kinase-glo luminescence assay
# HUVEC = experiment: Inhibition of VEGFR in HUVEC using […] as substrate at 10 uM incubated for 20 mins prior to substrate addition relative to control; format: cell-based; details: Homo sapiens
# [3] = target: Serine/threonine-protein kinase RAF and Dual specificity mitogen-activated protein kinase kinase 1 (Raf/MEK) (Homo sapiens) (UniProt P04049+Q02750); experiment: Inhibition of RAF-1/MEK1 (unknown origin) assessed as at 10 uM after 5 mins by fluorescence assay relative to control; format: protein assay
# [4] = target: Mitogen-activated protein kinase; ERK1/ERK2 (Homo sapiens) (UniProt P27361+P28482); experiment: Inhibition of ERK1/2 kinase in human A431 cells using EGF as substrate at 10 uM incubated for 5 mins prior to substrate addition measured after 10 mins by fluorescence assay relative to control; format: cell-based; details: A-431
# [5] = target: Glycogen synthase kinase-3 beta (Homo sapiens, UniProt P49841); experiment: Inhibition of human recombinant GSK-3 beta after 30 mins by luminescence assay
# HL-60 = experiment: Cytotoxicity against human HL60 cells after 72 hrs by Alamar Blue assay; format: functional, cell-based; details: HL-60, 72 h
# [6] = target: Serine/threonine-protein kinase B-raf (Homo sapiens) (UniProt P15056); experiment: Competitive binding to B-RAF kinase (unknown origin) at 100 nM to 100 uM after 60 to 120 mins by FRET analysis
# Sequence of Serine/threonine-protein kinase B-raf (Homo sapiens) (P15056 whole entry): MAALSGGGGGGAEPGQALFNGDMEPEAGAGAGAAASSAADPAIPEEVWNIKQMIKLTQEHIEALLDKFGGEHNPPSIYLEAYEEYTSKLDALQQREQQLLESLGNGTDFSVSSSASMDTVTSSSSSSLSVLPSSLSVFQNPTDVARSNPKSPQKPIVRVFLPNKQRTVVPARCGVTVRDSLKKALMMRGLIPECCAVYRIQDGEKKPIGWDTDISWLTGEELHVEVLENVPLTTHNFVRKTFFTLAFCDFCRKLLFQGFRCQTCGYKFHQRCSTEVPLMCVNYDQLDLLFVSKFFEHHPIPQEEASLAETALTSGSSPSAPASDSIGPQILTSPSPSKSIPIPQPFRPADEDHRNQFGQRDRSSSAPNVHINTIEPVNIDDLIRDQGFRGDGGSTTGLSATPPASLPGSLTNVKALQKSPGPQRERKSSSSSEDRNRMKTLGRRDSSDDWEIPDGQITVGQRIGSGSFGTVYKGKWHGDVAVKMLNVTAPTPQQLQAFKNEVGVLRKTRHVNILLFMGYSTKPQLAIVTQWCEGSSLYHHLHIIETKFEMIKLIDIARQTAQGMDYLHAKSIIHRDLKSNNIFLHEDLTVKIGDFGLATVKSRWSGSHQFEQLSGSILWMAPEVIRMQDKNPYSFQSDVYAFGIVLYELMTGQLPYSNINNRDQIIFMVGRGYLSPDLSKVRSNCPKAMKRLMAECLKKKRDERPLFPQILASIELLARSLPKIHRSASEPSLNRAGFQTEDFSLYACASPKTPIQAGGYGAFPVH
# Sequence of Casein kinase I isoform delta (P48730 whole entry, canonical isoform): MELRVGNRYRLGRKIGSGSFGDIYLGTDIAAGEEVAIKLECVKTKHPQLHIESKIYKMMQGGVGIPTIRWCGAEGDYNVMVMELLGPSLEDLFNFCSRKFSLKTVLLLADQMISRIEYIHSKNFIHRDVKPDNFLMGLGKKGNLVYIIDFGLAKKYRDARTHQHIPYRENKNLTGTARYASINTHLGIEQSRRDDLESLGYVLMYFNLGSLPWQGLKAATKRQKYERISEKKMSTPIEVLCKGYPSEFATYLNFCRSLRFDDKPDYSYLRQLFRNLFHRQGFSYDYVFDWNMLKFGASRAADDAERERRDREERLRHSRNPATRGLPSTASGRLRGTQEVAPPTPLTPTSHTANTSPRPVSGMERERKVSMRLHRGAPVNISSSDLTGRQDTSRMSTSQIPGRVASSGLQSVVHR
# Sequence of Glycogen synthase kinase-3 beta (P49841 whole entry): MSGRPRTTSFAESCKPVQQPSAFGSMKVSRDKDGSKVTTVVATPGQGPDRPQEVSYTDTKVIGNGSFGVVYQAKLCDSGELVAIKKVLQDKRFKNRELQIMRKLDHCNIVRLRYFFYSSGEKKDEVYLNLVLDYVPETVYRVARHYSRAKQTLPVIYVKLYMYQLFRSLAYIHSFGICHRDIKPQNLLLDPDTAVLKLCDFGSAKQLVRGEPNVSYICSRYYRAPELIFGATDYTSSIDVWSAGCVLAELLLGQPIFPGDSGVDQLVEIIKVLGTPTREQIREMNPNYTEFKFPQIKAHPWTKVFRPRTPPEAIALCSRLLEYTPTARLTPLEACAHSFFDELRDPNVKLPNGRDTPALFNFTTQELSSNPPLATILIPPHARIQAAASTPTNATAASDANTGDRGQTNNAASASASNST
# Sequence of Serine/threonine-protein kinase RAF and Dual specificity mitogen-activated protein kinase kinase 1 (Raf/MEK) (Homo sapiens) (P04049 whole entry, looked up): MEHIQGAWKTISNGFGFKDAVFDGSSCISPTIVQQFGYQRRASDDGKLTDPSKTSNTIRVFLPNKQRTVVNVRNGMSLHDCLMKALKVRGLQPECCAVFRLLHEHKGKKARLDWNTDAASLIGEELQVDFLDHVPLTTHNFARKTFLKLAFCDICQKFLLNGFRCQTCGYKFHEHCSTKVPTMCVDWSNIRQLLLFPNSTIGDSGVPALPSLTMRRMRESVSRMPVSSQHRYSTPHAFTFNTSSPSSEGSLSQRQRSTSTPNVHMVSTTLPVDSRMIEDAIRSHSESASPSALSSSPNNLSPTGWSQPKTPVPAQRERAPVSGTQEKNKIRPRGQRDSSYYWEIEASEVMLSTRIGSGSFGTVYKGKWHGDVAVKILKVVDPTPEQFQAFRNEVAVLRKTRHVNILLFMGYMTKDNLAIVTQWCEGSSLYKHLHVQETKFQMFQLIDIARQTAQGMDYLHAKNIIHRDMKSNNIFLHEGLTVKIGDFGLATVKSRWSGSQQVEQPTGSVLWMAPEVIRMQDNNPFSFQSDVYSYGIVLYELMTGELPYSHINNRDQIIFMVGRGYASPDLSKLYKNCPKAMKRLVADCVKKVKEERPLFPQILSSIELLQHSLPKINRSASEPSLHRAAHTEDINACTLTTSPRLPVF
# Sequence of Serine/threonine-protein kinase RAF and Dual specificity mitogen-activated protein kinase kinase 1 (Raf/MEK) (Homo sapiens) (Q02750 whole entry, looked up): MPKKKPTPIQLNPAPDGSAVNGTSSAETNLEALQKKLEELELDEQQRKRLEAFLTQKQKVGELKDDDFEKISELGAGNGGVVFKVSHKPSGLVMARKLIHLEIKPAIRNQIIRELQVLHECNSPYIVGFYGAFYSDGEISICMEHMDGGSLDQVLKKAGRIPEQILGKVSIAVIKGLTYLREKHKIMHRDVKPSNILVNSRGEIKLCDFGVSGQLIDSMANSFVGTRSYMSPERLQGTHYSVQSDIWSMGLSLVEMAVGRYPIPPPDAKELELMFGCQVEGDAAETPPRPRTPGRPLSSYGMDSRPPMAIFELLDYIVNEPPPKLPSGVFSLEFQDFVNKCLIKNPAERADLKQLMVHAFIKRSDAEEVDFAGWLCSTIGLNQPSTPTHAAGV
# Sequence of Mitogen-activated protein kinase; ERK1/ERK2 (Homo sapiens) (P27361 whole entry, looked up): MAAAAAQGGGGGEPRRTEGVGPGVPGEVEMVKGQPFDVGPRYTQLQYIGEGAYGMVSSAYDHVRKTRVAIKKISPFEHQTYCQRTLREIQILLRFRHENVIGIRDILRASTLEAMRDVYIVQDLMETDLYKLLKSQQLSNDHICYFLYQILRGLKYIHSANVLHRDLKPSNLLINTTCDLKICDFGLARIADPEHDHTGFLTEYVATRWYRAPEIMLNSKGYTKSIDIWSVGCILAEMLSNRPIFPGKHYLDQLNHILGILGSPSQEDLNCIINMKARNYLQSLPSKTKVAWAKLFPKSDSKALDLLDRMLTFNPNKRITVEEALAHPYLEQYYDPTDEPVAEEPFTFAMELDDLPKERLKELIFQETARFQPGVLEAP
# Sequence of Mitogen-activated protein kinase; ERK1/ERK2 (Homo sapiens) (P28482 whole entry, looked up): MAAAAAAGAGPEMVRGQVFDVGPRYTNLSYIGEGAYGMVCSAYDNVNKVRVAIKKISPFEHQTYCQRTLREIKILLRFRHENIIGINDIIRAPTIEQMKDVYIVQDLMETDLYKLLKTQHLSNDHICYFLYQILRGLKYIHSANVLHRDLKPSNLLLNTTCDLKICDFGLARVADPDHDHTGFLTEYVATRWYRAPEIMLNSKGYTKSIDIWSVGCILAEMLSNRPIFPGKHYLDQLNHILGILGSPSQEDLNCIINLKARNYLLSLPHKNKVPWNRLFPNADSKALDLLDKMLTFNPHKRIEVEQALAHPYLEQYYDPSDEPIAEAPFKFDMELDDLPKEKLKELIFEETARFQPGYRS
Compound,inhibition [1] [%],IC50 [2] [µM],inhibition [3] [%],inhibition [4] [%],IC50 [5] [µM],Activity [6],inhibition (HUVEC) [%],IC50 (HL-60) [µM]
N=C(N)Nc1ccc(C(=O)c2cccc(NC(=N)N)c2)cc1,–,> 100,–,–,> 100,–,–,141
CC(=O)Nc1cccc(Oc2ccc(NC(=N)Nc3ccc(Cl)c(C(F)(F)F)c3)cc2)c1,0,> 100,35,8,> 100,inactive,–,9.11
N=C(N)Nc1cccc(C(=O)c2ccc(NC(=N)Nc3ccccc3)cc2)c1,–,> 100,–,–,> 100,–,–,> 100
O=C(c1ccc(NC2=NCCN2)cc1)c1cccc(NC2=NCCN2)c1,–,> 100,–,–,> 100,–,–,> 100
N=C(N)Nc1cccc(Cc2ccc(NC(=N)Nc3ccc(Cl)c(C(F)(F)F)c3)cc2)c1,-7,> 100,99,17,> 100,inactive,17,15.9
CNC(=O)c1cc(Oc2ccc(NC(=O)Nc3ccc(Cl)c(C(F)(F)F)c3)cc2)ccn1 [SORAFENIB],–,–,–,–,–,–,–,1.68
CC(=O)Nc1cccc(Nc2ccc(NC(=N)Nc3ccc(Cl)c(C(F)(F)F)c3)cc2)c1,12,> 100,38,12,> 100,inactive,1,3.96
N=C(N)Nc1ccc(Nc2cccc(NC(=N)N)c2)cc1,4,> 100,86,–,> 100,–,-6,67.7
N=C(N)Nc1cccc(Oc2ccc(NC(=N)Nc3ccccc3)cc2)c1,1,> 100,4,–,> 100,–,-1,> 100
c1cc(Cc2ccc(NC3=NCCN3)cc2)cc(NC2=NCCN2)c1,–,> 100,–,–,> 100,–,–,> 100

# Second part, led by results:
inhibition [1] [%],IC50 [2] [µM],inhibition [3] [%],inhibition [4] [%],IC50 [5] [µM],Activity [6],Compound,inhibition (HUVEC) [%],IC50 (HL-60) [µM]
-1,> 100,2,6,> 100,–,N=C(N)Nc1ccc(Oc2ccc(NC(=N)N)cc2)cc1,7,88.4
–,> 100,–,–,> 100,–,N=C(N)Nc1ccc(Cc2cccc(NC(=N)N)c2)cc1,–,35.1
–,> 100,–,–,> 100,–,N=C(N)Nc1cccc(Cc2ccc(NC(=N)Nc3ccccc3)cc2)c1,–,> 100
–,> 100,–,–,> 100,–,c1cc(NC2=NCCN2)cc(Oc2ccc(NC3=NCCN3)cc2)c1,–,> 100
21,> 100,96,-7,> 100,inactive,N=C(N)Nc1cccc(Oc2ccc(NC(=N)Nc3ccc(Cl)c(C(F)(F)F)c3)cc2)c1,0,24.5
–,> 100,–,–,> 100,–,N=C(N)Nc1ccc(Oc2cccc(NC(=N)Nc3ccccc3)c2)cc1,–,> 100
–,> 100,–,–,> 100,–,N=C(N)Nc1cccc(Nc2ccc(NC(=N)Nc3ccccc3)cc2)c1,–,> 100
–,> 100,–,–,> 100,inactive,N=C(N)Nc1ccc(Cc2cccc(NC(=N)Nc3ccc(Cl)c(C(F)(F)F)c3)c2)cc1,–,16.6
12,> 100,74,–,> 100,inactive,N=C(N)Nc1cccc(Nc2ccc(NC(=N)Nc3ccc(Cl)c(C(F)(F)F)c3)cc2)c1,-3,36.6
-1,> 100,22,-4,> 100,–,N=C(N)Nc1ccc(Oc2cccc(NC(=N)N)c2)cc1,-1,36.2
20,> 100,96,21,> 100,inactive,N=C(N)Nc1cccc(C(=O)c2ccc(NC(=N)Nc3ccc(Cl)c(C(F)(F)F)c3)cc2)c1,0,22.3
–,> 100,–,–,> 100,–,N=C(N)Nc1ccc(Cc2cccc(NC(=N)Nc3ccccc3)c2)cc1,–,> 100
